Experimental findings from patent US12318452B2, “Degraders of WEE1 kinase” (DANA-FARBER CANCER INSTITUTE, INC., priority 2018, dated 2025) are described below.

Test [1] addresses T1, Wee1 (Homo sapiens, UniProt P30291). The test can be described thus: Cellular degradation of Wee1 by immunoblot, 6-hour treatment of MOLT4 cells. The test is classed as cell-based. Details: endogenous in cells; host or cells: MOLT4 (wild type; CRBN-/- as control). Particulars: MOLT-4, 1 μM, MOLT4 cells, approximated by immunoblot, read-out: Extent of Degradation of Wee1. The method, then: General Protocol: HT-29, MOLT4 wild type (WT) or CRBN^-/- cells were plated in a 6 well plate and treated for 6 hours with the indicated concentrations of the inventive compounds and control. HT-29 cells were cultured in McCoy's Media supplemented with 10% FBS and 1% Penicillin/Streptomycin. MOLT4 WT and CRBN^-/- cells were cultured in Roswell Park Memorial Institute (RPMI) medium supplemented with 10% FBS and 1% Penicillin/Streptomycin. Mycoplasma testing was performed every month and all lines were negative. Immunoblotting: Cells were washed with phosphate-buffered saline (PBS) and then lysed using radioimmunoprecipitation assay (RIPA) buffer supplemented with protease and phosphatase inhibitor cocktail (Roche) on ice for 15 minutes. The lysates were centrifuged at 14,000 rpm for 15 minutes at 4° C. and protein was quantified by bicinchoninic acid (BCA) assay (PierceTM). Primary antibodies used include: Wee1 ([…]) (Cell Signaling Technology®, 13084S), polo-like kinase 1 (PLK1) (Thermo Fisher Scientific, 37-7000), phosphor-cdc2 (Y15) (10A11) (Cell Signaling Technology®, […]), phospho-histone H3 ([…]) (Cell Signaling Technology®, […]), Ikaros ([…]) (Cell Signaling Technology®, 14859S), Aiolos ([…]) (Cell Signaling Technology®, 15103), casein kinase 1 alpha (Abcam®, 108296), β-actin (Cell Signaling Technology®, 8H10D10). FIG. 2A is an immunoblot showing that compound 13 degraded Wee1 after a 6-hour treatment in MOLT4 cells, and induced the downstream changes expected from Wee1 loss-including a decrease in phosphorylated cyclin-dependent kinase 1 (pCDK1) (Y15) and an increase in pH 3. […] Degradation of Wee1 by compound 13 was rescued in MOLT4 CRBN^-/- cells. MOLT4 WT and CRBN^-/- cells were plated in a 6-well plate at 2.25 million cells per well in 3 mL media (RPMI+10% FBS+1% Penn/Strep). After treatment with the indicated concentrations of candidate compounds, cells were incubated for 6 hours at 37° C. 5% CO2. To harvest, the cells were washed 1× with cold PBS, then collected by centrifugation. Cell pellets were lysed in RIPA buffer with protease and phosphatase inhibitors (Roche). Lysates were clarified by centrifugation, and protein concentrations were normalized using a BCA assay (Thermo ScientificTM). The samples were diluted with 4×LDS+10% β-mercaptoethanol, and were boiled at 95° C. for 5 minutes. Proteins of interest were then assessed by western blotting. […] The experimental protocol was the same as in Example 28.
(In general: In western blotting, separated proteins are transferred to a membrane and probed.)

Test [2] addresses T1, Wee1. The test can be described thus: LanthaScreen FRET-based biochemical binding assay for Wee1. Particulars: LanthaScreen Binding activity assay; average of two replicates ± SD. The method, then:
(§1) LanthaScreen™ assays were conducted for Wee1 in a 10-point dose response as performed in the commercial assay service by Life Technologies™. Z′-LYTE™ assays were conducted for PLK1 as performed in the commercial assay service by Life Technologies™ in a 10-point dose response using Km ATP concentrations.
(In TR-FRET formats the signal depends on donor and acceptor labels being close together.)

The target in test [3] is T1, Wee1. The test can be described thus: Wee1 degradation immunoblot in MOLT4 cells, 5-hr dose response and time course. The test is classed as cell-based. More on the design: endogenous in cells; host or cells: MOLT4 (wild type; CRBN-/- as control). Particulars: MOLT4 cells. The method, then:
Whole cell lysates for immunoblotting were prepared by pelleting cells from each cell line at 4° C. (300 g) for 5 minutes. The resulting cell pellets were washed 1× with ice-cold PBS and then resuspended in RIPA lysis buffer (Sigma, cat #R0278) supplemented with protease and phosphatase inhibitor tablets (Roche cat #4906845001). Lysates were clarified at 14,000 rpm for 15 minutes at 4° C. prior to quantification by BCA assay (Pierce™, cat #23225). Whole cell lysates were loaded into Bolt 4-12% Bis-Tris Gels (Thermo Fisher, cat #NW04120BOX) and separated by electrophoreses at 95 V for 1.5 hours. The gels were transferred to a nitrocellulose membrane using the iBlot® Gel Transfer at P3 for 7 minutes (Thermo Fisher, cat #IB23001) and then blocked for 1 hour at room temperature in Odyssey® blocking buffer (LICOR® Biosciences, cat #927-50010). Membranes were probed using antibodies against the relevant proteins at 4° C. overnight in 20% Odyssey® Blocking Buffer in 1×TBST. Membranes were then washed three times with 1×TBST (at least 5 minutes per wash) followed by incubation with the IRDye® goat anti-mouse (LICOR®, cat #926-32210) or goat anti-rabbit (LICOR®, cat #926-32211) secondary antibody (diluted 1:10,000) in 20% Odyssey® Blocking Buffer in 1×TBST for 1 hour at room temperature. After three washes with 1×TBST (at least 5 minutes per wash), the immunoblots were visualized using the ODYSSEY® Infrared Imaging System (LICOR®).
MOLT4 cells were plated at 1.5 million cells per well in a 6-well plate, with 3 mL of media per well. Cells were then immediately treated with the indicated concentration of the indicated compound and incubated for the indicated amount of time. Cells were collected by transferring each well to a 15 mL conical, centrifuging (1000 rpm for 3 min), then washing the cell pellet 2× with cold PBS. Each cell pellet was then lysed in 100 μL of RIPA lysis buffer (+protease/phosphatase inhibitors). Samples were normalized and prepped in 4×LDS+10% β-mercaptoethanol and boiled for 5 min at 95° C. Lysates were probed for specified proteins by western blotting using the Bolt® system (Life Technologies™)
To confirm that compound 13-mediated Wee1 degradation is CRBN dependent (FIG. 1D), Wee1 degradation profiles in parental versus CRBN^−/− MOLT4 cells were compared. In parental MOLT4 cells, compound 13 induced potent Wee1 degradation after 5 hours, with maximal degradation observed at 100 nM and a “hook effect” apparent at the top concentration of 10 μM, where compound 13:CRBN and compound 13-Wee1 binary complexes inhibit the formation of a productive ternary complex (Toure and Crews, Angew. Chem. 55:1966-1973 (2016)).
To evaluate the kinetics of Wee1 degradation, a time course study was performed in MOLT4 cells using 100 nM compound 13. Degradation occurred rapidly, with over 50% degradation achieved within 30 min, and complete degradation reached by 3 hr (FIG. 4C).

A further test has as its target PLK1 (Homo sapiens, UniProt P53350). The test can be described thus: Z′-LYTE kinase activity assay for PLK1. It is filed as biochemical. More on the design: purchased Life Technologies (Invitrogen) commercial assay service. As to conditions: Km ATP, average of two replicates ± SD. Here is the method:
as §1
The selectivity of Wee1 degradation was then assessed by performing multiplexed mass spectrometry (MS)-based proteomics in MOLT4 cells treated with 100 nM of compound 13 for 2 hours (Donovan et al., Elife 7:e38430 (2018)).

The test system of test [4] is MOLT4 cells (parental, wild type). The test can be described thus: CellTiter-Glo cell viability, 72 hours. It is filed as cell-based. Particulars: 72-hr. The method, then: The indicated cell lines were plated in flat bottom 384-well plates (Corning® cat #3570). MOLT4 cells were plated at a density of 3,000 cells per well in 50 μL media, while OVCAR8, COV362, and Kuramochi cells were plated at a density of 750 cells per well in 50 μL media. Cells were treated the next day (except for MOLT4 cells, which were treated the same day as plating) with 0.1 μL of the indicated compounds in a four-fold dilution series using the Janus pinner. Cells were incubated with compounds for 72 hours at 37° C. 5% CO2. Anti-proliferative effects were then assessed by CellTiter-Glo® Luminescent Cell Viability Assay (Promega™ cat #G7570) according to the manufacturer's standards, measuring luminescence using an EnVision® plate-reader. IC50 values were determined using a non-linear regression curve fit in GraphPad Prism 8. N=4 biological replicates were used for each treatment condition.
MOLT4 cells were plated in a 384-well plate at 5,000 cells per well in 50 μL media (RPMI+10% FBS+1% Penn/Strep) and treated with 0.1 μL of the candidate compounds in four-fold dilution series using the Janus pinner. Cells were incubated with compounds for 72 hours at 37° C. 5% CO2. Anti-proliferative effects of these compounds were assessed 72 hours after compound addition using CellTiter-Glo® (Promega, cat #G7571). All proliferation assays were performed in biological quadruplicate. […] Effects upon cell viability for compound 13 in the MOLT4 WT cells are therefore likely driven in part by Wee1 inhibition, and in part by CRBN-mediated Wee1 degradation. […] Degradation of Wee1 with compound 21 was mediated by VHL.
On the technique in general: In ATP-based viability assays light output follows the ATP content of the culture.

The test system of the next test is MOLT4 cells. Nature of the test: Cell cycle analysis by propidium iodide staining. It is filed as cell-based. Particulars: 1 μM, 24 hours, MOLT4 cells. The method, then: MOLT4 cells were plated at 1.5 million cells per well in a 6-well plate, with 3 mL of media per well. Immediately after plating, cells were treated with the indicated concentrations of the indicated compound. At the indicated time points, cells were collected by transferring each well to a 15 mL conical, centrifuging (1000 rpm for 3 min), and then washing the cell pellet 3× with cold PBS. Cell pellets were then fixed with 1 mL cold 80% ethanol in PBS at 4° C. overnight. The cell pellets were then washed by adding 1 mL of PBS and then centrifuging (1500 rpm for 5 minutes), followed by aspiration of the PBS/ethanol mix. Cells were resuspended in cell cycle staining solution (100 μg/mL of RNAse A (Roche, 10109169001) and 50 μg/mL propidium iodide (Life Technologies™, P1304MP), diluted in PBS, and incubated for 10 minutes at room temperature. Cell cycle data was acquired by flow cytometry on a Guava® easyCyte™ flow cytometer (Millipore™) using the InCyte™ software. Data was analyzed using FlowJo®. N=3 biological replicates were used for each treatment condition.

Where “and” joins values, the source holds several entries; their conditions need not be identical. Equal entries are not always repeated.

T1 sequence (P30291 whole entry): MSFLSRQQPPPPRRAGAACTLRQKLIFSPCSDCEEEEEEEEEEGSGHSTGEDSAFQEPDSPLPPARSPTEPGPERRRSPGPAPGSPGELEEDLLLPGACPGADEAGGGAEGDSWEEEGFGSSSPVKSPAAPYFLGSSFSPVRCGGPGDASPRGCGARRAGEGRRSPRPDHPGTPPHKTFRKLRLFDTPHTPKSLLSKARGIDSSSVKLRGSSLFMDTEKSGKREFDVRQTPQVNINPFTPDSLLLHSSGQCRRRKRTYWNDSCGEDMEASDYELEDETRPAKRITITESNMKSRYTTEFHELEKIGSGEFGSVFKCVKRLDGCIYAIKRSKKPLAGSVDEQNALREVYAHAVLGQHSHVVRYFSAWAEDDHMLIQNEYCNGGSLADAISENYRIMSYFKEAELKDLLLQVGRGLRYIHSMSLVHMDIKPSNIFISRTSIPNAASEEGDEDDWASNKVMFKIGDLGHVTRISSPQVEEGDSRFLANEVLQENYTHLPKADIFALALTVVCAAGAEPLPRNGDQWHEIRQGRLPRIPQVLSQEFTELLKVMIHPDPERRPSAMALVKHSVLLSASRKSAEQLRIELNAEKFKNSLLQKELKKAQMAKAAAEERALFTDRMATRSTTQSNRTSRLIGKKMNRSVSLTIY
PLK1, sequence (P53350 whole entry): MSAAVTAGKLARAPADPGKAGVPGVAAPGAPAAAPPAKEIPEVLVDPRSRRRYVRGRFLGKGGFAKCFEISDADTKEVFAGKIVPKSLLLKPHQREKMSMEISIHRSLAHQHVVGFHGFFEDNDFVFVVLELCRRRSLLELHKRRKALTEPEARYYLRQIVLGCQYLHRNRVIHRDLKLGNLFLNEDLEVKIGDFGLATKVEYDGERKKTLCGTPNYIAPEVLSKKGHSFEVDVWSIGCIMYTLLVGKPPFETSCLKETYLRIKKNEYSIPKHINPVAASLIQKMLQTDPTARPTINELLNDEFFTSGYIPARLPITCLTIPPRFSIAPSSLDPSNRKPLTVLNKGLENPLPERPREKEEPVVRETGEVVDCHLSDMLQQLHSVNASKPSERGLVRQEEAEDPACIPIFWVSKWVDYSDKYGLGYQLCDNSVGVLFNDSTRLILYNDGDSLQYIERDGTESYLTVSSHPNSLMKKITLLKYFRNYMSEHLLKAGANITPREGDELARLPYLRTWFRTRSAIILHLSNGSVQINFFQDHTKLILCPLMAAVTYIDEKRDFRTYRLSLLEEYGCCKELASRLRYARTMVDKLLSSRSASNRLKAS

On to `C=CCn1c(=O)c2cnc(Nc3ccc(N4CCN(CCCNC(=O)CCOCCOCCNc5cccc6c5C(=O)N(C5CCC(=O)NC5=O)C6=O)CC4)cc3)nc2n1-c1cccc(C(C)(C)O)n1` (centres unmarked) [Compound 7, N-(3-(4-(4-((2-allyl-1-(6-(2-hydroxypropan-2-yl)pyridin-2-yl)-3-oxo-2,3-dihydro-1H-pyrazolo[3,4-d]pyrimidin-6-yl)amino)phenyl)piperazin-1-yl)propyl)-3-(2-(2-((2-(2,6-dioxopiperidin-3-yl)-1,3-dioxoisoindolin-4-yl)amino)ethoxy)ethoxy)propanamide], for which, on Wee1 [1], the percent Wee1 degradation at 1 µM was above 50%. Besides, the IC50 (usually the concentration that gives 50% inhibition) on Wee1 [2] was 1 to 10 nM and 7.28 nM; at PLK1, 118 ± 6 nM. In addition, on Wee1 [3] (5-hr treatment), the “Concentration required to achieve maximal Wee1 degradation” value was 1 µM.
For the compound `C=CCn1c(=O)c2cnc(Nc3ccc(N4CCN(CCOCCOCCOCCNc5cccc6c5C(=O)N(C5CCC(=O)NC5=O)C6=O)CC4)cc3)nc2n1-c1cccc(C(C)(C)O)n1` (centres unmarked) [Compound 12, 4-((2-(2-(2-(2-(4-(4-((2-allyl-1-(6-(2-hydroxypropan-2-yl)pyridin-2-yl)-3-oxo-2,3-dihydro-1H-pyrazolo[3,4-d]pyrimidin-6-yl)amino)phenyl)piperazin-1-yl)ethoxy)ethoxy)ethoxy)ethyl)amino)-2-(2,6-dioxopiperidin-3-yl)isoindoline-1,3-dione], at Wee1 [1], the percent Wee1 degradation at 1 µM was above 50%. Also, the IC50 at Wee1 [2] was 1 to 10 nM and 3.18 nM; against PLK1, 285 ± 14 nM. Moreover, the “Concentration giving maximal (sufficient) Wee1 degradation” value on Wee1 [3] (5-hr treatment) is listed as 100 nM.
For `Nc1cccc2c1CN(C1CCC(=O)NC1=O)C2=O` (centres unmarked) [Lenalidomide, reference compound], in test [4], the Antiproliferative activity result was “no detectable antiproliferative activity”. Moreover, the “Effect on the cell cycle” value with MOLT4 cells was “did not induce any significant changes”.
Regarding `C=CCn1c(=O)c2cnc(Nc3ccc(N4CCN(CCCCCCNc5cccc6c5C(=O)N(C5CCC(=O)NC5=O)C6=O)CC4)cc3)nc2n1-c1cccc(C(C)(C)O)n1` (centres unmarked) [Compound 11, 4-((6-(4-(4-((2-allyl-1-(6-(2-hydroxypropan-2-yl)pyridin-2-yl)-3-oxo-2,3-dihydro-1H-pyrazolo[3,4-d]pyrimidin-6-yl)amino)phenyl)piperazin-1-yl)hexyl)amino)-2-(2,6-dioxopiperidin-3-yl)isoindoline-1,3-dione], the percent Wee1 degradation at 1 µM at Wee1 [1] was in the range of 25 to 50%. The IC50 at Wee1 [2] was 4.46 ± 0.95 nM; against PLK1 it was 23.6 ± 4 nM. For the same compound, at Wee1 [3] (5-hr exposure, 100 nM-10 μM), the Wee1 degradation result is on record as “degraded Wee1”.
